How the values were obtained:
[1] = tested on: B16F10 tumor-bearing mice; experiment: Tumor-induced splenomegaly in B16F10 tumor-bearing mice (spleen weight); assay type: in vivo; details: 5 mg/kg i.p. daily from tumor size around 100 mm^3
Protocol: (§1) B16F1, B16F10 melanoma cells, and CT26 colon carcinoma cells were cultured in IMDM medium supplemented with 10% Fetal bovine serum (FBS). C57BL/6 mice were injected subcutaneously with 1 million B16F1 or B16F10 melanoma cells at an age between 6 to 8 weeks. The mice received daily injections of guanabenz (5 mg/kg, i.p.) or PBS when the tumor size was around 100 mm^3. Mice were sacrificed when the tumor in control group reached 1,000 mm^3. Spleen were isolated and weighted. […] TiRP tumor bearing mice received daily injections of clonidine (5 mg/kg, i.p.), romifidine (5 mg/kg, i.p.) or PBS when the tumor size was around 500 mm^3. Mice were sacrificed when the tumor in control group reached 1,500 mm^3. Spleen were isolated and spleen weight was measured with an analytical balance.

[2] = tested on: BALB/c mice bearing CT26 colon carcinomas; experiment: Splenomegaly in mice bearing CT26 colon carcinomas, agonist/antagonist evaluation; assay type: in vivo; details: each drug 5 mg/kg i.p. daily from tumor size around 50 mm^3
Protocol: B16F1, B16F10 melanoma cells, and CT26 colon carcinoma cells were cultured in IMDM medium supplemented with 10% Fetal bovine serum (FBS). […] For evaluation of phentolamine on the effect of clonidine and guanabenz, the mice were randomized into different groups when tumors size arrived around 50 mm^3 and received daily injections of guanabenz (5 mg/kg, i.p.), phentolamine (5 mg/kg, i.p.), propranolol (5 mg/kg, i.p.), a mix of guanabenz (5 mg/kg, i.p.) and phentolamin (5 mg/kg, i.p.), clonidine (5 mg/kg, i.p.), a mix of clonidine (5 mg/kg, i.p.) and phentolamin (5 mg/kg, i.p.), a mix of clonidine (5 mg/kg, i.p.) and propranolol (5 mg/kg, i.p.) or vehicle control. Tumor size was measured every 2 days and mice were sacrificed when the tumor in control group reached 1,000 mm^3. Spleen were isolated and spleen weight was measured with an analytical balance. Spleen from mice of same age without tumors were used as controls.

[3] = tested on: mice transplanted with JAK2V617F mutated bone marrow; experiment: Splenomegaly induced by myelofibrosis (JAK2V617F mutated bone marrow transplantation); assay type: in vivo; details: for spleen weight (myelofibrosis-induced splenomegaly), prevention: treatment started one week after bone marrow transplantation, 5 mg/kg daily for three weeks; for spleen weight (myelofibrosis-induced splenomegaly), treatment: treatment started three weeks after bone marrow transplantation, splenomegaly already formed, 5 mg/kg daily for two weeks
[4] = tested on: patient with obesity-related diseases, such as fatty liver; details: cited from earlier work
DBA/2 mice = experiment: Splenomegaly induced by virus-mediated (Chadox_li_P1A prime, MVA_P1A boost) immunization; assay type: in vivo; details: 5 mg/kg 2 hours before and daily after immunization, two weeks
TiRP tumor bearing mice = experiment: Tumor-induced splenomegaly in TiRP tumor bearing mice (spleen weight); assay type: in vivo; details: 5 mg/kg i.p. daily from tumor size around 500 mm^3 until sacrifice
Excerpt: TiRP mice have been created by crossing Ink4a/Arf^flox/flox mice with mice carrying a transgenic construct controlled by the tyrosinase promoter and driving the expression of H-Ras^12V and Trap1a which encodes a MAGE-type tumor antigen […]; the promoter is separated from the coding region by a stop cassette made of a floxed self-deleting CreER (Huijbers et al., 2006, Cancer Res 66, 3278-3286). Those mice were backcrossed to a B10.D2 background and bred to homozygosity. TCR[…] mice heterozygous for the H-2Ld/[…]-43-specific TCR transgene were kept on the B10.D2;Rag1^-/- background ([…] et al., 2004, J Immunol 172, 5069-5077). DBA/2 mice and C57BL/6J mice were used in tumor transplantation and mice immunization experiments. All mice used in this study were produced under specific pathogen free (SPF) conditions at the animal facility of the de Duve Institute. All the rules concerning animal welfare have been respected according to the 2010/63/EU Directive. All procedures were performed with the approval of the local Animal Ethical Committee, with reference 2015/UCL/MD/15. A fresh solution of […]-Tamoxifen was prepared by dissolving […]-Tamoxifen ([…]®) in 100% ethanol and mineral oil (ratio 1:9) followed by 30 min sonication, and injected subcutaneously (2 mg/200 μL per mouse) in the neck area of gender-matched 7 weeks old TiRP mice. Tumor appearance was monitored daily and tumors were measured three times/week. Tumor volume (in mm^3) was calculated by the following formula: Volume=width^2×length/2. C57BL/6 mice were injected subcutaneously with 1 million B16F1 or B16F10 melanoma cells at an age between 6 to 8 weeks. The mice received daily injections of guanabenz (5 mg/kg, i.p.) or PBS when the tumor size was around 100 mm^3. Mice were sacrificed when the tumor in control group reached 1,000 mm^3. Spleen were isolated and weighted. […] TiRP tumor bearing mice received daily injections of clonidine (5 mg/kg, i.p.), romifidine (5 mg/kg, i.p.) or PBS when the tumor size was around 500 mm^3. […] Spleen were isolated and spleen weight was measured with an analytical balance.

[5] = tested on: C56BL/6 Wildtype mice implanted with MC38 colon carcinomas; experiment: Tumor-induced splenomegaly, MC38 colon carcinomas in wildtype mice; assay type: in vivo; details: 5 mg/kg i.p. daily from tumor size around 50 mm^3
Protocol: (§2) C56BL/6 Wildtype or C56BL/6 Adra2a KO mice were implanted with MC38 colon carcinomas and received daily injections of vehicle control, guanabenz or clonidine (5 mg/kg, i.p.) when the tumor size was around 50 mm^3, until the day of sacrifice. Spleen weight were taken at the time of mice dissection.

C57BL/6J mice = experiment: Splenomegaly induced by protein-mediated (Ovalbumin) immunization; assay type: in vivo; details: 5 mg/kg 2 hours before and daily after immunization, one week
Protocol: C57BL/6J mice were immunized once by intraperitoneal (i.p.) injection of 200 μg of OVA protein adsorbed onto Alhydrogel adjuvant 2% (Sigma Aldrich®). These mice were administered 100 μg (5 mg/kg) of guanabenz 2 hours before the immunization and daily after the immunization. […] One week after the immunization, mice were sacrificed, the spleen of each mouse was collected, and spleen weight was measured with an analytical balance.

[6] = tested on: C56BL/6 Adra2a KO mice implanted with MC38 colon carcinomas; experiment: Tumor-induced splenomegaly, MC38 colon carcinomas in Adra2a KO mice; assay type: in vivo; details: 5 mg/kg i.p. daily from tumor size around 50 mm^3
Protocol: as §2

B16F1 tumor-bearing mice = experiment: Tumor-induced splenomegaly in B16F1 tumor-bearing mice (spleen weight); assay type: in vivo; details: 5 mg/kg i.p. daily from tumor size around 100 mm^3
Protocol: as §1

[7] = tested on: flatworm-induced splenomegaly (schistosomiasis); details: cited from earlier work
C57BL/6 J wild-type mice = details: romiplostim 1 mg/kg s.c. days 1, 8, 15, 5 mg/kg i.p. daily for two weeks from day 8
Protocol: (§3) 8-week female C57BL/6 J wild-type and Adra2a KO mice were administered saline or 1 mg/kg of romiplostim by a subcutaneous injection into the neck skin on days 1, 8 and 15. Clonidine or guanabenz were administrated i.p. at a dose of 5 mg/kg daily for two weeks starting from day 8. Mice were dissected on day 22 and spleen weight were measured. After killing, peripheral blood was drawn by cardiac puncture, the platelet concentration was measured by Cell Counter Analyzer MS9-5V.

Adra2a KO mice = details: romiplostim 1 mg/kg s.c. days 1, 8, 15, 5 mg/kg i.p. daily for two weeks from day 8
Protocol: as §3

TiRP-tumor bearing mice = TiRP-tumor bearing mice with ACT of 10 million P1A-specific CD8+ T cells; each drug 5 mg/kg i.p. daily from tumor size around 500 mm^3

SMILES | spleen weight (tumor-induced splenomegaly) [1] | spleen weight / spleen size [2] | spleen weight (myelofibrosis-induced splenomegaly), prevention [3] | spleen weight (myelofibrosis-induced splenomegaly), treatment [3] | weight of the spleen [4] | spleen weight (immunization-induced splenomegaly) (DBA/2 mice) | spleen weight (tumor-induced splenomegaly) (TiRP tumor bearing mice) | spleen weight (tumor-induced splenomegaly) [5] | spleen weight (immunization-induced splenomegaly) (C57BL/6J mice) | spleen weight (tumor-induced splenomegaly) [6] | spleen weight (tumor-induced splenomegaly) (B16F1 tumor-bearing mice) | splenomegaly [7] | spleen weight (romiplostim-induced splenomegaly) (C57BL/6 J wild-type mice) | spleen weight (romiplostim-induced splenomegaly) (Adra2a KO mice) | spleen weight / spleen size (TiRP-tumor bearing mice)
N=C(N)N/N=C/c1c(Cl)cccc1Cl [guanabenz] | can reverse the tumor-induced splenomegaly | reduced the spleen size | significantly reduced the splenomegaly | significantly reduced the splenomegaly | promoting a decrease in the weight of the spleen | inhibits splenomegaly | can reverse the tumor-induced splenomegaly | inhibit tumor-induced splenomegaly | inhibits splenomegaly | no inhibition is observed | can reverse the tumor-induced splenomegaly | – | – | – | –
CN1C[C@H](C(=O)N[C@]2(C)O[C@@]3(O)[C@@H]4CCCN4C(=O)[C@H](Cc4ccccc4)N3C2=O)C=C2c3cccc4[nH]cc(c34)C[C@H]21 [ergotamine] | – | – | – | – | – | – | – | – | – | – | – | reduced flatworm-induced splenomegaly | – | – | –
Clc1cccc(Cl)c1N=C1NCCN1 [clonidine] | – | reduced the spleen size | significantly reduced the splenomegaly | significantly reduced the splenomegaly | – | – | TiRP tumor-induced splenomegaly is inhibited | inhibit tumor-induced splenomegaly | – | no inhibition is observed | – | – | significantly reduced the splenomegaly | not in Adra2a KO mice | reduced spleen size
Fc1cccc(Br)c1NC1=NCCN1 [romifidine] | – | – | – | – | – | – | TiRP tumor-induced splenomegaly is inhibited | – | – | – | – | – | – | – | –
